The nature of one data set: PAMPA permeability. Format: in vitro ADME.
The target in data set [1] is T1, DCN1 (Homo sapiens, UniProt Q96GG9). The data set is classed as cell-based. As to conditions: HCC95 cells, 10 μM, 1 h, 53 °C.
Target sequence in this assay (Q96GG9 whole entry): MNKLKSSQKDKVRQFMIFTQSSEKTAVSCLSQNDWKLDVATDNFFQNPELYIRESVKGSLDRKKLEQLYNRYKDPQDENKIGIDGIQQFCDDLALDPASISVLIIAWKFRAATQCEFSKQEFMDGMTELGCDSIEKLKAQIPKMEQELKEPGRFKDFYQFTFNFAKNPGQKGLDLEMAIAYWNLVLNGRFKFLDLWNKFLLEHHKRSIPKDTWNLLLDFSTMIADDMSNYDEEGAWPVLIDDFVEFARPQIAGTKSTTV
In data set [2] the target is UBE2M (N-acetylated) (Homo sapiens) (UniProt P61081). As to conditions: cited from earlier work.
The target of data set [3] is DCN1-UBE2M protein-protein interaction (Homo sapiens, UniProt Q96GG9). The data set is classed as binding.
The next data set relates to HCC95 cells. As to the kind of experiment: In vitro proliferation assay, HCC95 cells. Format: cell-based.
The target in another data set is T2, NEDD8 E1 enzyme (Homo sapiens, UniProt Q13564+Q8TBC4).
T2 sequence (Q8TBC4 1-463): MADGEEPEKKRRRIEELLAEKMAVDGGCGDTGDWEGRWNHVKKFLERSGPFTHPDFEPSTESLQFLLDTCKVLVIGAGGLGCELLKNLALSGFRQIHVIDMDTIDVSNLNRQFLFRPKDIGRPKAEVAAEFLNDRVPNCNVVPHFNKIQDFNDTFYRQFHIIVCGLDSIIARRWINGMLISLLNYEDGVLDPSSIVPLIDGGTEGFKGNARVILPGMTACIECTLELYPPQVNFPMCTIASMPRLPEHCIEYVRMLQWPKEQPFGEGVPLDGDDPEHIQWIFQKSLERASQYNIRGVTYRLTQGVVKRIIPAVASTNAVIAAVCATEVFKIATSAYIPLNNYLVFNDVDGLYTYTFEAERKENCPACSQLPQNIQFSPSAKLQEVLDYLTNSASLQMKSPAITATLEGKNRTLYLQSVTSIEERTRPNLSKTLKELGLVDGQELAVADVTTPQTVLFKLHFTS
T2 sequence (Q13564 1-534): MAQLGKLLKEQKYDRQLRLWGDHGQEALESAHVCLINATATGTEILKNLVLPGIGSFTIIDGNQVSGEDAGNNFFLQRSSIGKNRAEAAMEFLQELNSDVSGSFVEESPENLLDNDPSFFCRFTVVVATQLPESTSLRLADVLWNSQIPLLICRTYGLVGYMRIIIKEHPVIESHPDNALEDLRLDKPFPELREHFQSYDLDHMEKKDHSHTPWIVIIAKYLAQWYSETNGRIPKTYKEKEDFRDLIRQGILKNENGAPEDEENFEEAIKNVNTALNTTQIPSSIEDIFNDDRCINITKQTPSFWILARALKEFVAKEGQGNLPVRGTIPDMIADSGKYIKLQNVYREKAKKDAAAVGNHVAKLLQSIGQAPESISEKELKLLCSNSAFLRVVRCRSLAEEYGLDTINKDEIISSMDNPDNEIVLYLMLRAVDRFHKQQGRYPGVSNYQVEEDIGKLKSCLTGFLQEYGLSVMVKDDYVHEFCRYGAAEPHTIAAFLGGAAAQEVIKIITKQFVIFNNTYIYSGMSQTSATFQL
Briefly: Inhibition of the NEDD8 E1 activating enzyme. As to conditions: concentrations as high as 50 μM. The data set is classed as biochemical.

In data set [4] the target is T1, DCN1. The data set is classed as biochemical.
Target sequence in this assay (Q96GG9 62-259 limits assumed): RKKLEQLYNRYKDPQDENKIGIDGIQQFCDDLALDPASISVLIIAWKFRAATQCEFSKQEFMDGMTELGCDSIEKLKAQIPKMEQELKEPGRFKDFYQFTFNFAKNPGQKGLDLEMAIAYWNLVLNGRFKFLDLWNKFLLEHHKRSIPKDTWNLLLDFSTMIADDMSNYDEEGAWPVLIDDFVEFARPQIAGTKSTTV
In the next data set the target is RBX1 (Homo sapiens, UniProt P62877). As to the kind of experiment: DCN1-independent neddylation of cullins catalyzed solely by RBX1. Format: biochemical.
In data set [5] the test system is cullin neddylation in HCC95 cells. Briefly: Western blot for inhibition of cellular cullin neddylation in HCC95 cells. Format: cell-based. The conditions noted are these: for Inhibition of cullin neddylation in HCC95 cells / Steady-state level of cullin neddylation for CUL1 and CUL3 / Steady-state level of cullin neddylation for CUL2, CUL4A and CUL5: 20 μM; for Inhibition of cullin neddylation in HCC95 cells: dosing at T = 0 and 24 hr, 48 hours; for Steady-state level of cullin neddylation for CUL1 and CUL3 / Steady-state level of cullin neddylation for CUL2, CUL4A and CUL5: HCC95 cells; for Accumulation of well-recognized proteasomal targets (immunoblot): acute pharmacological inhibition, Supplementary Figure 6. A general note: Immunoblotting shows a protein as a band on a membrane.

The next data set deals with DCN3-5. Briefly: Pulse-chase isoform selectivity, NEDD8 transfer from UBE2M to CUL2. Format: biochemical, human. The conditions noted are these: at 50 μM.

Where two headings read alike, the source gives them in different places.

What is called Kd is the constant that tells how readily two partners part at equilibrium.

RBX1, sequence (P62877 whole entry, species assumed): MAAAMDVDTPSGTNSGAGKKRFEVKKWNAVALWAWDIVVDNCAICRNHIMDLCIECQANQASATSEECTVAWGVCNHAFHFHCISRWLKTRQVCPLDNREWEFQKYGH
RBX1, sequence (Q13617 whole entry partner, species assumed): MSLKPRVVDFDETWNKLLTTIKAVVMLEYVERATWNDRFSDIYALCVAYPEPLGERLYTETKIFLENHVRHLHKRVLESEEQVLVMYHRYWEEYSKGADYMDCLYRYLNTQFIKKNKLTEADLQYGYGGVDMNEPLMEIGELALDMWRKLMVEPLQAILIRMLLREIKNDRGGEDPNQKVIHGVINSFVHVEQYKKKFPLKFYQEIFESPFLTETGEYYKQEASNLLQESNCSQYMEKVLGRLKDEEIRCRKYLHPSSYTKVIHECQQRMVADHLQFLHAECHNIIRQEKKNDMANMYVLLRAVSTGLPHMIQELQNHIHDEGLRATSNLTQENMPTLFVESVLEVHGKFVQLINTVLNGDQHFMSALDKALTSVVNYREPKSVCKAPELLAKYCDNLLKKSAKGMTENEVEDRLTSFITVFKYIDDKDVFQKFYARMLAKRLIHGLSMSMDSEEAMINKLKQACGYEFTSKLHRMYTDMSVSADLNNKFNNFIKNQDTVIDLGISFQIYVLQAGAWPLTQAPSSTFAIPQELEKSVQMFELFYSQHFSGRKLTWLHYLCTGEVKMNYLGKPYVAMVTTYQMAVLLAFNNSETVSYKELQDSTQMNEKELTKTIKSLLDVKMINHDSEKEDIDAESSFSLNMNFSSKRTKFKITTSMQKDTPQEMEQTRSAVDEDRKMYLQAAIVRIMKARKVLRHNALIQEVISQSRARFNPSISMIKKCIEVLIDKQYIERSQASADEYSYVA
DCN1-UBE2M protein-protein interaction, sequence (Q96GG9 62-259 limits assumed): as the sequence (Q96GG9 62-259 limits assumed) above
UBE2M (N-acetylated) (Homo sapiens), sequence (P61081 whole entry): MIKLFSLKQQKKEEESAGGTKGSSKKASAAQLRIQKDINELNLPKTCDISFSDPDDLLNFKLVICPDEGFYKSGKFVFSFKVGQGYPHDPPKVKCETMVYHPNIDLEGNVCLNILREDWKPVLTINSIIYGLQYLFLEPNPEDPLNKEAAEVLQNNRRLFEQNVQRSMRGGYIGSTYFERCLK
DCN1 (from UniProt Q96GG9), sequence (Q96GG9 whole entry): as the sequence (Q96GG9 whole entry) above

As to `CCCN1CCC(N(CCOC)C(=O)Nc2cccc(C(F)(F)F)c2)CC1` [Compound 39], in “PAMPA permeability”, the Pampa is 1600 ± 1 ×10^−6 cm/s.

In the case of `O=C(Nc1cccc(C(F)(F)F)c1)NC1CCN(Cc2cccc(Cl)c2)CC1` [Compound 17], the Pampa in the data set “PAMPA permeability” is 1700 ± 1 ×10^−6 cm/s.

`CCCN1CCC(N(CCC)C(=O)Nc2cccc(C(F)(F)F)c2)CC1` [Compound 35]: the Pampa in “PAMPA permeability” is on record as 1600 ±170 ×10^−6 cm/s. In the data set “PAMPA permeability”, `CCCS(=O)(=O)N1CCC(N(Cc2ccccc2)C(=O)Nc2cccc(C(F)(F)F)c2)CC1` [Compound 61] registered a Pampa of under 1e-06 cm/s. `Cc1ccc(CN2CCC(NC(=O)Nc3cccc(C(F)(F)F)c3)CC2)cc1` [Compound 19] displayed a Pampa in the data set “PAMPA permeability” of over 0.0022 cm/s. On to `Cc1ccccc1CN1CCC(NC(=O)Nc2cccc(C(F)(F)F)c2)CC1` [Compound 13], for which, in “PAMPA permeability”, the Pampa is given as 1200 ± 35 ×10^−6 cm/s. Compound `Cn1nccc1-c1cccc(NC(=O)NC2CCN(Cc3ccccc3)CC2)c1` [Compound 32] had a Pampa in “PAMPA permeability” of over 0.0022 cm/s. As to `CCCCS(=O)(=O)N1CCC(N(Cc2ccccc2)C(=O)Nc2cccc(C(F)(F)F)c2)CC1` [Compound 62], in “PAMPA permeability”, the Pampa was under 1e-06 cm/s. For `Cc1ccc(NC(=O)NC2CCN(Cc3ccccc3)CC2)cc1Cl` [Compound 25], the Pampa in “PAMPA permeability” is over 0.0022 cm/s. For `CCCCN1CCC(N(Cc2ccccc2)C(=O)Nc2cccnc2)CC1` [NAcM-NEG, reference compound], on DCN1 [1], the “Thermal stability of the DCN1 protein (CETSA)” value (“Thermal stability” for short) is reported as “largely degraded”.

Consider DCN1 (from UniProt Q96GG9), for which the Kd in data set [2] was 1000 nM. As for `O=C(Nc1cccc(C(F)(F)F)c1)N(Cc1ccccc1)C1CCN(Cc2ccc(F)cc2)CC1` [Compound 68], the Pampa in “PAMPA permeability” (mean ± SD) is over 0.0022 cm/s. As for `Cc1cccc(NC(=O)NC2CCN(Cc3ccccc3)CC2)c1` [Compound 26], the “Potency in the TR-FRET assay (in words)” value in [3] was “practically inactive”.

The compound `O=C(Nc1cccc(C(F)(F)F)c1)N(Cc1ccccc1)C1CCN(CC2CCCCC2)CC1` [Compound 58] came in with a Pampa in “PAMPA permeability” of under 1e-06 cm/s.

`O=C(Nc1cccc(C(F)(F)F)c1)N(Cc1ccccc1)C1CCN(Cc2ccc3c(c2)OCCO3)CC1` [Compound 71]: the Pampa in “PAMPA permeability” (mean ± SD) is over 0.0022 cm/s.

Take `CCCN1CCC(N(Cc2cccnc2)C(=O)Nc2cccc(C(F)(F)F)c2)CC1` [Compound 43]: the Pampa in “PAMPA permeability” is given as 1300 ±79 ×10^−6 cm/s. With `CCCN1CCC(N(CC(C)C)C(=O)Nc2cccc(C(F)(F)F)c2)CC1` [Compound 37], the Pampa in “PAMPA permeability” is recorded as 1900±200 ×10^−6 cm/s. As for `CCCN1CCC(N(CC2CCCCC2)C(=O)Nc2cccc(C(F)(F)F)c2)CC1` [Compound 40], in the data set “PAMPA permeability”, the Pampa was over 0.0022 cm/s.

For the compound `CCCCN(C(=O)Nc1cccc(C(F)(F)F)c1)C1CCN(CCC)CC1` [Compound 36], the Pampa in the data set “PAMPA permeability” is over 0.0022 cm/s. In “PAMPA permeability” (mean ± SD), `O=C(Nc1cccc(C(F)(F)F)c1)N(Cc1ccccc1)C1CCN(Cc2ccc3c(c2)OCO3)CC1` [Compound 70] yielded a Pampa of over 0.0022 cm/s. `CCCCN1CCC(N(Cc2ccccc2)C(=O)Nc2cccc(C(F)(F)F)c2)CC1` [Compound 49, 1-benzyl-1-(1-butylpiperidin-4-yl)-3-(3-(trifluoromethyl)phenyl)urea] had a Pampa in the data set “PAMPA permeability” of over 0.0022 cm/s. Moreover, the “Growth inhibition of monolayer cultures at 20 μM” value with HCC95 cells was “only minimally growth inhibitory”. Moreover, on NEDD8 E1 enzyme, the “Inhibition of the E1 activating enzyme for NEDD8” value was “do not inhibit”. Further, on DCN1 [4], the “Inhibition of DCN1 stimulated NEDD8 transfer from UBE2F to the cullins” value is recorded as “inhibit”. Further, the “Inhibition of DCN1-independent neddylation of cullins catalyzed solely by RBX1” value (from here on “Inhibition … by RBX1”) at RBX1 is listed as “do not inhibit”. Also, the “Thermal stability” value on DCN1 [1] was “clearly enhanced”. In [5], the “Inhibition of cullin neddylation in HCC95 cells” value is recorded as “inhibited neddylation”; the “Steady-state level of cullin neddylation for CUL1 and CUL3” value was “selectively decreases”; the “Steady-state level of cullin neddylation for CUL2, CUL4A and CUL5” value was “relatively unaffected”; the “Accumulation of well-recognized proteasomal targets (immunoblot)” value is recorded as “failed to cause gross accumulation”. Turning to `O=C(Nc1cccc(C(F)(F)F)c1)NC1CCN(Cc2ccc(Cl)cc2)CC1` [Compound 20], the Pampa in the data set “PAMPA permeability” is 1300 ± 43 ×10^−6 cm/s. With `O=C(Nc1cccc(C(F)(F)F)c1)NC1CCN(Cc2ccc(F)cc2)CC1` [Compound 21], in the data set “PAMPA permeability”, the Pampa is over 0.0022 cm/s. In the case of `CCCN1CCC(N(Cc2cc(F)cc(C(F)(F)F)c2)C(=O)Nc2cccc(C(F)(F)F)c2)CC1` [Compound 46], the Pampa in the data set “PAMPA permeability” was over 0.0022 cm/s. In addition, on RBX1, the “Inhibition … by RBX1” value is “do not inhibit”. For `O=C(Nc1cccc(C(F)(F)F)c1)NC1CCN(Cc2cccc(F)c2)CC1` [Compound 18], the Pampa in “PAMPA permeability” was over 0.0022 cm/s.

`O=C(Nc1cccc(C(F)(F)F)c1)NC1CCN(Cc2ccccc2F)CC1` [Compound 15]: the Pampa in “PAMPA permeability” is 1500 ± 1 ×10^−6 cm/s. In “PAMPA permeability” (mean ± SD), `O=C(Nc1cccc(C(F)(F)F)c1)N(Cc1ccccc1)C1CCN(Cc2cccnc2)CC1` [Compound 67] showed a Pampa of over 0.0022 cm/s. Take `CCCCCN1CCC(N(Cc2ccccc2)C(=O)Nc2cccc(C(F)(F)F)c2)CC1` [Compound 50]: the Pampa in “PAMPA permeability” is recorded as 1400 ± 540 ×10^−6 cm/s.

Take `CC(C)(C)N1CCC(N(Cc2ccc3c(c2)OCO3)C(=O)Nc2cccc(C(F)(F)F)c2)CC1` [Compound 73]: the “Inhibition … by RBX1” value on RBX1 is given as “do not inhibit”.

For the compound `CCCC(C)N1CCC(N(Cc2ccccc2)C(=O)Nc2cccc(C(F)(F)F)c2)CC1` (stereo not drawn) [Compound 52, 1-benzyl-1-(1-(pentan-2-yl)piperidin-4-yl)-3-(3-(trifluoromethyl)phenyl)urea], in the data set “PAMPA permeability”, the Pampa was 1400 ±39 ×10^−6 cm/s. Further, in the data set on HCC95 cells, the “Growth inhibition of monolayer cultures at 20 μM” value was “only minimally growth inhibitory”. Also, the “Inhibition of neddylation activity of DCN3-5” value in the data set with DCN3-5 is reported as “slight activity”. Also, the “Inhibition of the E1 activating enzyme for NEDD8” value on NEDD8 E1 enzyme was “do not inhibit”. For the same compound, at DCN1 [4], the “Inhibition of DCN1 stimulated NEDD8 transfer from UBE2F to the cullins” value is “inhibit”. At RBX1, the “Inhibition … by RBX1” value is “do not inhibit”. For the same compound, the “Thermal stability” value on DCN1 [1] is listed as “clearly enhanced”. Besides, in [5], the “Inhibition of cullin neddylation in HCC95 cells” value is “inhibited neddylation”; the “Steady-state level of cullin neddylation for CUL1 and CUL3” value is “selectively decreases”; the “Steady-state level of cullin neddylation for CUL2, CUL4A and CUL5” value was “relatively unaffected”; the “Accumulation of well-recognized proteasomal targets (immunoblot)” value is given as “failed to cause gross accumulation”.

Turning to `CCCN1CCC(N(CCC(C)C)C(=O)Nc2cccc(C(F)(F)F)c2)CC1` [Compound 38], in the data set “PAMPA permeability”, the Pampa is 1500 ±5.4 ×10^−6 cm/s. For `Cc1cccc(CN2CCC(NC(=O)Nc3cccc(C(F)(F)F)c3)CC2)c1` [Compound 16], in “PAMPA permeability”, the Pampa was over 0.0022 cm/s. For `O=C(Nc1cccc(C(F)(F)F)c1)N(Cc1ccccc1)C1CCNCC1` [Compound 47], in the data set “PAMPA permeability”, the Pampa is over 0.0022 cm/s. As for `CCCN1CCC(N(Cc2ccc3c(c2)OCO3)C(=O)Nc2cccc(C(F)(F)F)c2)CC1` [Compound 45, 1-(benzo[d][1,3]dioxol-5-ylmethyl)-1-(1-propylpiperidin-4-yl)-3-(3-(trifluoromethyl)phenyl)urea], the Pampa in the data set “PAMPA permeability” is over 0.0022 cm/s. In “PAMPA permeability”, `CCCN1CCC(N(Cc2ccco2)C(=O)Nc2cccc(C(F)(F)F)c2)CC1` [Compound 41] had a Pampa of over 0.0022 cm/s. Take `CC(=O)O[C@H]1CN(Cc2ccccc2)CC[C@@H]1NC(=O)Nc1cccc(C(F)(F)F)c1` [Compound 34, (3S,4S)-1-benzyl-4-(3-(3-(trifluoromethyl)phenyl)ureido)piperidin-3-yl acetate]: the “Potency in the TR-FRET assay (in words)” value in [3] is “did not possess improved potency compared to our initial HTS hit 1”. For the compound `O=C(Nc1ccccc1)NC1CCN(Cc2ccccc2)CC1` [Compound 23], the Pampa in the data set “PAMPA permeability” was 1400 ± 250 ×10^−6 cm/s.

The values above are taken from PMC5898815 (Journal of medicinal chemistry, 2018).
